On the set-up of data set [1]: method as in Tidefelt et al, 1989. Conditions: 0-48 h after simultaneous infusion of 20 mg of epirubicin and 20 mg of doxorubicin; ref Tidefelt et al, 1989; cited from earlier work.
Data set [2] is described as follows: Leucocyte (cellular) drug levels 2 and 24 h after injection. The class given is in vivo, human. Particulars: leucocytes. The text has this: British Jourmal of Cancer (1998) 77(1), 139-146 ? 1998 Cancer Research Campaign Broad phase 11 and pharmacokinetic study of methoxy-morpholino doxorubicin (FCE 23762-MMRDX) in non-small-cell lung cancer, renal cancer and other solid tumour patients M Bakker', JP Droz2, AR Hanauske3, J Verweij4, AT van Oosterom5, HJM Groen', MA Pacciarini6, L Domenigoni6, F van Weissenbruch', E Pianezzola6 and EGE de Vries' 'University Hospital Groningen, The Netherlands; 2Centre L6on Berard, Lyon, France; 3Med. […] Patients received a maximum of six cycles. […] Limitations of the clinical value of anthracyclines are their toxicity profile, especially irreversible, dose-related cardiotoxicity, and intrinsic or acquired tumour resis- tance. Various mechanisms play a role in tumour cell resistance to anthracyclines, including overexpression of drug efflux pumps such as P-glycoprotein, decreased levels of the target enzyme topoisomerase II, and an increase in cellular detoxifying capacity (Kaye and Merry, 1985; Deffie et al, 1989; De Jong et al, 1990; Ford and Hait, 1990; Meijer et al, 1990; Zaman et al, 1994). The morpholinyl anthracyclines have been developed in the course of research aimed at identifying new anthracyclines with at least partially novel modes of action in addition to activity against resis- tant tumours (Acton et al, 1984). […] Box 30.001, 9700 RB Groningen, The Netherlands (Figure 1).

Results on 3 molecules are retold here after article PMC2151269, “Broad phase II and pharmacokinetic study of methoxy-morpholino doxorubicin (FCE 23762-MMRDX) in non-small-cell lung cancer, renal cancer and other solid tumour patients” (British Journal of Cancer, 1998).

Some results are limits rather than exact numbers.

Turning to `COc1cccc2c1C(=O)c1c(O)c3c(c(O)c1C2=O)C[C@@](O)(C(=O)CO)C[C@@H]3O[C@H]1C[C@H](N)[C@@H](O)[C@H](C)O1` [epirubicin], in data set [1], the “Peak cellular concentrations relative to plasma concentrations” value was “around 200 times”.

In the case of “13-dihydro-3'-deamino-3'-[2(S)-methoxy-4-morpholinyl] doxorubicin [13-dihydro metabolite]”, the “Intracellular levels as % of total MMRDX cellular levels” value in data set [2] is recorded as no more than 5%.

As for `COc1cccc2c1C(=O)c1c(O)c3c(c(O)c1C2=O)C[C@@](O)(C(=O)CO)C[C@@H]3O[C@H]1C[C@H](N)[C@H](O)[C@H](C)O1` [doxorubicin], the “Peak cellular concentrations relative to plasma concentrations” value in data set [1] was “around 200 times”.
